Our source for the Activity, Kd and inhibition values is ChEMBL document CHEMBL2034920, “Protuboxepin A, a marine fungal metabolite, inducing metaphase arrest and chromosomal misalignment in tumor cells” (Bioorg Med Chem, 2012).

For test [1], the system named is Hep 3B2. Nature of the test: Disruption of alpha-tubulin networks in human Hep3B cells at 10 nM after 18 hrs by immunofluorescence assay. Format: cell-based.
The nature of test [2]: Cell cycle arrest in human Hep3B cells assessed as increase of cells with misaligned chromosomes at 10 nM after 24 hrs by immunofluorescence assay. It is filed as functional, cell-based. Particulars: Hep 3B2.
For test [3], the system named is Hep 3B2. Kind of test: Disruption of alpha-tubulin networks in human Hep3B cells assessed as increasing acetylated-tubulin signal at 10 nM after 18 hrs by immunofluorescence assay. Format: cell-based.
The next test concerns the target Tubulin (Homo sapiens) (UniProt P68371+Q9H4B7+P0DPH7+P68366+Q13509+Q71U36+P04350+Q3ZCM7+P07437+P68363+Q9BQE3+Q6PEY2+Q13885+Q9BVA1+Q9BUF5). Kind of test: Disruption of gamma-tubulin networks in human Hep3B cells at 10 nM after 18 hrs by immunofluorescence assay. It is filed as cell-based. Particulars: Hep 3B2.
Test [4] relates to Hep 3B2. Kind of test: Disruption of alpha-tubulin networks in human Hep3B cells assessed as induction of polyglutamylated-tubulin bleb formation at 10 nM after 18 hrs by immunofluorescence assay. It is filed as cell-based.
Test [5] can be described thus: Cell cycle arrest in human Hep3B cells assessed as induction of prometaphase arrest at 10 nM after 24 hrs by immunofluorescence assay. Particulars: Hep 3B2. Format: functional, cell-based.
Test [6] deals with Hep 3B2. Nature of the test: Induction of chromosome misalignment in nucleus of human Hep3B cells at 80 to 160 uM after 18 hrs by immunofluorescence staining. Format: functional, cell-based.
Test [7] in a line: Cell cycle arrest in human Hep3B cells assessed as accumulation at G0/G1 phase at 80 uM after 24 hrs by flow cytometry (reference value: 52.99%). Format: functional, cell-based. Particulars: Hep 3B2.
The subject of test [8] is MDA-MB-231. Nature of the test: Induction of apoptosis in human MDA-MB-231 cells assessed as roundup morphology after 48 hrs by microscopic analysis. It is filed as functional, cell-based.
The subject of test [9] is Hep 3B2. Kind of test: Induction of chromosome mislocalization in human Hep3B cells at 80 to 160 uM after 18 hrs by immunofluorescence assay. It is filed as functional, cell-based.
A short description of test [10]: Cell cycle arrest in human Hep3B cells assessed as accumulation at G2/M phase at 0.5 uM after 24 hrs by flow cytometry (reference value: 24.37%). It is filed as functional, cell-based. Particulars: Hep 3B2.
The test system of test [11] is Hep 3B2. Nature of the test: Induction of apoptosis in human Hep3B cells assessed as roundup morphology after 48 hrs by microscopic analysis. Format: functional, cell-based.
Test [12] has as its system Hep 3B2. Nature of the test: Disruption of alpha-tubulin networks in human Hep3B cells at 80 to 160 uM after 18 hrs by immunofluorescence assay. It is filed as cell-based.
The nature of test [13]: Cell cycle arrest in human Hep3B cells assessed as accumulation at G2/M phase at 27 uM after 24 hrs by flow cytometry (reference value: 24.37%). It is filed as functional, cell-based. Particulars: Hep 3B2.
For test [14], the target named is T1, Tubulin (Sus scrofa) (UniProt P02554+P02550). Kind of test: Induction of porcine tubulin polymerization at 80 uM measured for every 1 min for 60 mins by spectrophotometry. It is filed as protein assay.
T1 sequence (P02550 whole entry, looked up): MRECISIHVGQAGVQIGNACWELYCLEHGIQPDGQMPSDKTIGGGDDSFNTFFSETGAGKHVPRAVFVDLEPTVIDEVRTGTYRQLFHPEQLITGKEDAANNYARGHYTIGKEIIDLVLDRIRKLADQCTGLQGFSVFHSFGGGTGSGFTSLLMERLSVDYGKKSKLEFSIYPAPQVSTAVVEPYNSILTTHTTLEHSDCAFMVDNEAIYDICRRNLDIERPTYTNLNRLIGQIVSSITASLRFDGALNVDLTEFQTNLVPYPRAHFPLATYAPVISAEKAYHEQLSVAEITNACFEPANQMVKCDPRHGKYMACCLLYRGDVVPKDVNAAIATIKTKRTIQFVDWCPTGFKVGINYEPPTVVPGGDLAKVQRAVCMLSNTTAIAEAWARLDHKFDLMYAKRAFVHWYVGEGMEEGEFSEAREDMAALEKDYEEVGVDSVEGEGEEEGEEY
T1 sequence (P02554 whole entry, looked up): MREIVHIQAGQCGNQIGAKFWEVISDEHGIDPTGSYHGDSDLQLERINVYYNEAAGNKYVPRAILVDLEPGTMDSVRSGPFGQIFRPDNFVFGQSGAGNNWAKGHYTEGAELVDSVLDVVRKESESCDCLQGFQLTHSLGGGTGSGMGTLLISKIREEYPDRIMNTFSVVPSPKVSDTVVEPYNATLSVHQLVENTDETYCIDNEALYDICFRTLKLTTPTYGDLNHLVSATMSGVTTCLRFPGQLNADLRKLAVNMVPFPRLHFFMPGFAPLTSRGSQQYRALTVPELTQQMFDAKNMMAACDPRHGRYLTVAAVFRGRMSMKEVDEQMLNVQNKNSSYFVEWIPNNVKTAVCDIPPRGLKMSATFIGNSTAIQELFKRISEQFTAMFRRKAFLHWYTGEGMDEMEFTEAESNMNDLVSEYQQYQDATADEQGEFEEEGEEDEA
Test [15] can be described thus: Cell cycle arrest in human Hep3B cells assessed as accumulation at M phase at 80 uM after 24 hrs by flow cytometry (reference value: 6.24 +/- 2.14%). Format: functional, cell-based. Particulars: Hep 3B2.
For test [16], the system named is Hep 3B2. Nature of the test: Induction of apoptosis in human Hep3B cells assessed as induction of caspase-3 cleavage at 27 to 160 uM after 18 hrs by Western blotting analysis. It is filed as functional, cell-based.
In test [17] the target is Apoptosis regulator Bcl-2 (Homo sapiens) (UniProt P10415). Nature of the test: Induction of Bcl-2 phosphorylation at Ser70 in human Hep3B cells at 160 uM after 18 hrs by Western blotting analysis. Format: cell-based. Particulars: Hep 3B2.
Apoptosis regulator Bcl-2 (Homo sapiens), sequence (P10415 whole entry): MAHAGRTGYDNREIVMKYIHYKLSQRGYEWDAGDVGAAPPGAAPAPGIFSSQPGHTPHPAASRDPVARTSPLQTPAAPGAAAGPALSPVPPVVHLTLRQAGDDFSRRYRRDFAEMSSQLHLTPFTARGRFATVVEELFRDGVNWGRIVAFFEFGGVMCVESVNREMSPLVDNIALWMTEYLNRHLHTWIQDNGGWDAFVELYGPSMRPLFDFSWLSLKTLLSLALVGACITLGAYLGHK
Test [18] can be described thus: Cell cycle arrest in human Hep3B cells assessed as accumulation at S phase at 0.5 uM after 24 hrs by flow cytometry (reference value: 11.18%). Particulars: Hep 3B2. Format: functional, cell-based.
The nature of test [19]: Cell cycle arrest in human Hep3B cells assessed as accumulation at S phase at 27 uM after 24 hrs by flow cytometry (reference value: 11.18%). It is filed as functional, cell-based. Particulars: Hep 3B2.
Test [20] relates to Hep 3B2. Nature of the test: Induction of apoptosis in human Hep3B cells assessed as roundup morphology after 24 hrs by microscopic analysis. Format: functional, cell-based.
Test [21] relates to Hep 3B2. Nature of the test: Disruption of alpha-tubulin networks in human Hep3B cells assessed as increasing acetylated-tubulin signal at 80 to 160 uM after 18 hrs by immunofluorescence assay. Format: cell-based.
Test [22] in a line: Binding affinity to porcine brain alphabeta-tubulin using ForteBio's Octet system. It is filed as tissue-based, Sus scrofa.
The nature of test [23]: Cell cycle arrest in human Hep3B cells assessed as accumulation at subG1 phase at 0.5 uM after 24 hrs by flow cytometry (reference value: 1.14%). Format: functional, cell-based. Particulars: Hep 3B2.
Test [24] can be described thus: Cell cycle arrest in human Hep3B cells assessed as accumulation at G0/G1 phase at 27 uM after 24 hrs by flow cytometry (reference value: 52.99%). It is filed as functional, cell-based. Particulars: Hep 3B2.
Test [25] can be described thus: Cell cycle arrest in human Hep3B cells assessed as accumulation at S phase at 80 uM after 24 hrs by flow cytometry (reference value: 11.18%). It is filed as functional, cell-based. Particulars: Hep 3B2.
The species named for another test is Homo sapiens. Kind of test: Induction of Histone H3 Ser10 phosphorylation in human […] cells at 80 to 160 uM after 18 hrs by immunofluorescence staining. It is filed as cell-based.
For test [26], the target named is Cyclin-dependent kinase 1 (Homo sapiens) (UniProt P06493). Nature of the test: Inhibition of CDC2 phosphorylation at Tyr15 in human Hep3B cells at 160 uM after 18 hrs by Western blotting analysis. It is filed as cell-based. Particulars: Hep 3B2.
Cyclin-dependent kinase 1 (Homo sapiens), sequence (P06493 whole entry, looked up): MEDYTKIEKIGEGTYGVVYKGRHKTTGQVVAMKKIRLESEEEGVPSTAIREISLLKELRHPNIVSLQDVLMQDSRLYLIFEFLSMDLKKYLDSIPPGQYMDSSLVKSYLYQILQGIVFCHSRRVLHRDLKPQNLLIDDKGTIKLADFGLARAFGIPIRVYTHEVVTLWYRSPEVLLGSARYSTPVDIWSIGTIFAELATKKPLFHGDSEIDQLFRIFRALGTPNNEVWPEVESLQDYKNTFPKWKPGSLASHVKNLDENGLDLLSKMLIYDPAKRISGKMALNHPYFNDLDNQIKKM
The test system of test [27] is Hep 3B2. Kind of test: Disruption of alpha-tubulin networks in human Hep3B cells assessed as induction of polyglutamylated-tubulin bleb formation at 80 to 160 uM after 18 hrs by immunofluorescence assay. Format: cell-based.
Test [28] in a line: Cell cycle arrest in human Hep3B cells assessed as accumulation at M phase at 160 uM after 24 hrs by flow cytometry (reference value: 6.24 +/- 2.14%). It is filed as functional, cell-based. Particulars: Hep 3B2.
A short description of test [29]: Cell cycle arrest in human Hep3B cells assessed as accumulation at subG1 phase at 80 uM after 24 hrs by flow cytometry (reference value: 1.14%). It is filed as functional, cell-based. Particulars: Hep 3B2.
Test [30] in a line: Cell cycle arrest in human Hep3B cells assessed as accumulation at G2/M phase at 160 uM after 24 hrs by flow cytometry (reference value: 24.37%). It is filed as functional, cell-based. Particulars: Hep 3B2.
Test [31] deals with HeLa. Nature of the test: Inhibition of microtubule dynamics in human HeLa cells expressing EB1-EGFP at 80 to 160 uM after 1 min by image time-lapse analysis. It is filed as functional, cell-based.
The nature of test [32]: Cell cycle arrest in human Hep3B cells assessed as accumulation at G0/G1 phase at 160 uM after 24 hrs by flow cytometry (reference value: 52.99%). It is filed as functional, cell-based. Particulars: Hep 3B2.
The nature of test [33]: Cell cycle arrest in human Hep3B cells assessed as accumulation at subG1 phase at 27 uM after 24 hrs by flow cytometry (reference value: 1.14%). Format: functional, cell-based. Particulars: Hep 3B2.
Test [34] is described as follows: Cell cycle arrest in human Hep3B cells assessed as accumulation at G2/M phase at 80 uM after 24 hrs by flow cytometry (reference value: 24.37%). Format: functional, cell-based. Particulars: Hep 3B2.
Test [35] has as its target T1, Tubulin (Sus scrofa). Nature of the test: Induction of porcine tubulin polymerization at 160 uM measured for every 1 min for 60 mins by spectrophotometry. Format: protein assay.
Test [36] has as its system MDA-MB-231. Nature of the test: Induction of apoptosis in human MDA-MB-231 cells assessed as roundup morphology after 24 hrs by microscopic analysis. Format: functional, cell-based.
Test [37] is described as follows: Cell cycle arrest in human Hep3B cells assessed as accumulation at S phase at 160 uM after 24 hrs by flow cytometry (reference value: 11.18%). It is filed as functional, cell-based. Particulars: Hep 3B2.
Test [38] concerns HeLa. Kind of test: Up-regulation of geminin-GFP in human HeLa cells at 160 uM after 18 hrs by FUCCI analysis. Format: functional, cell-based.
Test [39] in a line: Cell cycle arrest in human Hep3B cells assessed as induction of chromosome misalignment in nuclei at 80 to 160 uM after 24 hrs by immunofluorescence assay. Format: functional, cell-based. Particulars: Hep 3B2.
Test [40] can be described thus: Cell cycle arrest in human Hep3B cells assessed as accumulation at subG1 phase at 160 uM after 24 hrs by flow cytometry (reference value: 1.14%). Format: functional, cell-based. Particulars: Hep 3B2.
Test [41] is described as follows: Cell cycle arrest in human Hep3B cells assessed as increased the phosphorylation of histone H3 at 80 to 160 uM after 24 hrs by immunofluorescence assay. It is filed as functional, cell-based. Particulars: Hep 3B2.
Test [42] relates to Hep 3B2. Nature of the test: Induction of apoptosis in human Hep3B cells assessed as induction of PARP cleavage at 27 to 160 uM after 18 hrs by Western blotting analysis. Format: functional, cell-based.

Active and inactive are the calls of the source. The rule behind the calls is not given here.

For `CC(=O)O[C@H]1C(=O)[C@@]2(C)[C@H]([C@H](OC(=O)c3ccccc3)[C@]3(O)C[C@H](OC(=O)[C@H](O)[C@@H](NC(=O)c4ccccc4)c4ccccc4)C(C)=C1C3(C)C)[C@]1(OC(C)=O)CO[C@@H]1C[C@@H]2O`, the result (in the test with Hep 3B2 [1]; in [2]; with Hep 3B2 [3]; at Tubulin (Homo sapiens); in the test on Hep 3B2 [4]; in [5]) was Active.
For the compound `CCC(C)[C@@H]1NC(=O)[C@@H](Cc2ccccc2)n2c1nc1c(c2=O)C=CC=CO1` (some centres undefined) [PROTUBOXEPIN A], the outcome (with Hep 3B2 [6]; in the test with Hep 3B2 [9]; in the test with Hep 3B2 [12]; on Tubulin (Sus scrofa) [14]; in the test on Hep 3B2 [16]; in test [17]) was Active. The result (with Hep 3B2 [21]; in the test filed under Homo sapiens; in the test on Hep 3B2 [27]; at Tubulin (Sus scrofa) [35]; in the test on HeLa [38]; in test [39]) was Active. In addition, the outcome (in test [41]; with Hep 3B2 [42]) was Active. For the same compound, the Activity in test [7] is 41.9%; in the test on MDA-MB-231 [8], “Dose-dependent effect”; in [10], 20.5%; in the test on Hep 3B2 [11] it was “Dose-dependent effect”; in test [13], 26%; in [15], 18.8%. The Activity in test [18] was 7.31%; in test [19] it was 10.1%; in the test on Hep 3B2 [20], “Dose-dependent effect”; in [23] it was 7%; in test [24], 49.1%; in test [25], 10.8%. For the same compound, the Activity in test [28] amounted to 39.5%; in [29], 6.12%; in test [30], 46.7%; in test [32], 23.7%; in test [33] it was 2.26%; in test [34], 34.4%. For the same compound, the values for the Activity entry (in the test with MDA-MB-231 [36]; in test [37]; in test [40]) were “Dose-dependent effect”, 7.44% and 20.8%, respectively. In test [22], this compound displayed a Kd of 71.3 µM. Besides, the inhibition result (in test [26]; with HeLa [31]) was “Active” throughout.
